Values of other authors, collected in US20220273701A1, “TREATMENT FOR REDUCING ADVERSE EVENTS INCLUDING CHEMOTHERAPY DISCOMFORT AND OTHER CONDITIONS” (priority 2019, published 2022).

Molecule	pKa of Acid (or pH of 1:1 mixture)
Tris(hydroxymethyl)aminomethane	8.2
Boric Acid [Boric Acid/Borate]	9.0
Arginine anion [Arginine anion/Arginine dianion]	12.48
Tyrosine anion [Tyrosine anion/Tyrosine dianion]	10.07
Lysine anion [Lysine anion/Lysine dianion]	10.79
CC[C@H](C)[C@H](N)C(=O)O [Isoleucine/Isoleucine anion, Isoleucine]	9.60
NCC(=O)O [Glycine/Glycine anion, Glycine]	9.60
O=C(O)[C@@H]1CCCN1 [Proline/Proline anion, Proline]	10.60

Second part, the molecule after the results:

pKa of Acid (or pH of 1:1 mixture)	Molecule
10.78	N[C@@H](CS)C(=O)O [Cysteine/Cysteine anion, Cysteine]
9.62	CC(C)[C@H](N)C(=O)O [Valine/Valine anion, Valine]
8.55	O=S(=O)(O)CCCNC(CO)(CO)CO [tris(hydroxymethyl)methylamino]propanesulfonic acid]
9.69	C[C@H](N)C(=O)O [Alanine/Alanine anion, Alanine]
9.3	O=S(=O)(O)CCNC1CCCCC1 [N-Cyclohexyl-2-aminoethanesulfonic acid]
10.4	O=S(=O)(O)CCCNC1CCCCC1 [N-cyclohexyl-3-aminopropanesulfonic acid]
